Patent publication US10370339B2, “N-Methylbenzimidazoles as mIDH1 inhibitors” (BAYER PHARMA AKTIENGESELLSCHAFT, priority 2015, dated 2019)

Each compound was assayed against IDH1 R132H enzyme (Homo sapiens (Human), UniProt O75874, R132H) (assay: Mutant IDH1 R132H biochemical assay). Settings: NADPH consumption, luminescent readout; 1.5 nM enzyme, 1 μM NADPH, 250 μM α-KG, 30 minutes, 32° C.
Protocol: Mutant IDH1 R132H Biochemical Assay mIDH1 catalyzes the NADPH-dependent reduction of alpha-ketoglutarate (a-KG) to (2R)-2-hydroxyglutarate (2-HG). NADPH consumption was measured by luminescent readout.
The biochemical reactions were performed at 32° C. in 384-well plates using a reaction volume of 41 μL and the following assay buffer conditions: 50 mM Tris pH 7.5, 100 mM NaCl, 20 mM MgCl2, 0.05% BSA, 0.01% Brij, 1 μM NADPH, and 250 μM α-KG. The IDH1 R132H enzyme was used in a final concentration of 1.5 nM. Test compounds were used in a concentration range between 0.002 and 10 μM. The final DMSO concentration was 2.4%.
The reaction was incubated for 30 minutes, then 40 μL of detection mix (0.75 μg/ml Luciferase, 0.02 U/ml Oxidoreductase, 4 μg/mL FMN, 2 μL/ml decanal/ethanol, 50 mM Tris pH 7.5, 0.5% Glycerin, 0.01% Tween-20, 0.05% BSA) was added. Luminescence was measured on a luminescent reader (10 seconds measuring time, 1 second integration period, 30% sensitivity). The decrease in luminescence is proportional to mIDH1 activity. IC50 values are determined by interpolation from plots of relative luminescence versus inhibitor concentration.

IDH1 R132H enzyme, sequence (O75874 whole entry R132H): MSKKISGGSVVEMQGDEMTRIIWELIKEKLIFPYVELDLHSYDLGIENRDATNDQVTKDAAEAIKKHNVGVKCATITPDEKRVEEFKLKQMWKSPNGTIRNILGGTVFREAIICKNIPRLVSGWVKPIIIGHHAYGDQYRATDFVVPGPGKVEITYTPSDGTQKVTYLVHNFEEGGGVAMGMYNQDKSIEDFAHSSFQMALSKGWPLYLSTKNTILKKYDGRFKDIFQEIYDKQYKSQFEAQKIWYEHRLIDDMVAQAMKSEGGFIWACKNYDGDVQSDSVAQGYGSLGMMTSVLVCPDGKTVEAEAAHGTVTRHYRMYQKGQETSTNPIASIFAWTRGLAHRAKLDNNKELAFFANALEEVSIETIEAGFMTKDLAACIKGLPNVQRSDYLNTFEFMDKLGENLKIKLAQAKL

| SMILES | IC50 [nM] |
| --- | --- |
| COC(=O)Cc1ccc2c(c1)nc(Nc1ccc(OC(C)C)cc1)n2[C@@H]1C[C@H](C)CC[C@H]1C(C)C [Example 2-12] | 300 |
| COC(=O)CCc1cc2nc(Nc3ccc(OC(F)(F)F)cc3)n([C@@H]3C[C@H](C)CC[C@H]3C(C)C)c2cc1OC [Example 2-43, methyl 3-(1-[(1R,2S,5R)-2-isopropyl-5-methylcyclohexyl]-6-methoxy-2-{[4-(tri-fluoromethoxy)phenyl]amino}-1H-benzimidazol-5-yl)propanoate] | 190 |
| Cc1cc2c(cc1CC(=O)O)nc(Nc1ccc(OC(C)C)cc1)n2[C@@H]1C[C@H](C)CC[C@H]1C(C)C [Example 2-36] | 30 |
| COC(=O)c1ccc2c(c1)nc(Nc1ccc(C(C)C)cc1)n2[C@@H]1C[C@H](C)CC[C@H]1C(C)C [Example 2-2] | 65 |
| COC(=O)c1cc2nc(Nc3ccc(C(C)C)cc3)n([C@@H]3C[C@H](C)CC[C@H]3C(C)C)c2cc1OC [Example 2-8] | 130 |
| CC(C)Oc1ccc(Nc2nc3cc(C(=O)O)ccc3n2[C@@H]2C[C@H](C)CC[C@H]2C(C)C)cc1 [Example 2-24] | 13 |
| COC(=O)Cc1cc2nc(Nc3ccc(C(C)C)cc3)n([C@@H]3C[C@H](C)CC[C@H]3C(C)C)c2cc1OC [Example 2-17] | 68 |
| COc1cc2c(cc1CCC(=O)O)nc(Nc1ccc(OC(F)(F)F)cc1)n2[C@@H]1C[C@H](C)CC[C@H]1C(C)C [Example 2-46, 3-(1-[(1R,2S,5R)-2-isopropyl-5-methylcyclohexyl]-6-methoxy-2-{[4-(trifluoromethoxy)phenyl]amino}-1H-benzimidazol-5-yl)propanoic acid] | 15 |
| Cc1cc2c(cc1C(=O)O)nc(Nc1ccc(OC(C)C)cc1)n2[C@@H]1C[C@H](C)CC[C@H]1C(C)C [Example 2-27] | 15 |
| COc1cc2c(cc1CC(=O)O)nc(Nc1ccc(OC(C)C)cc1)n2[C@@H]1C[C@H](C)CC[C@H]1C(C)C [Example 2-39] | 70 |
| COC(=O)c1ccc2c(c1)nc(Nc1ccc(OC(C)C)cc1)n2[C@@H]1C[C@H](C)CC[C@H]1C(C)C [Example 2-3] | 200 |
| COC(=O)c1ccc2c(c1)nc(Nc1ccc(OC(F)(F)F)cc1)n2[C@@H]1C[C@H](C)CC[C@H]1C(C)C [Example 2-1, methyl 1-[(1R,2S,5R)-2-isopropyl-5-methylcyclohexyl]-2-{[4-(trifluoromethoxy)-phenyl]amino}-1H-benzimidazole-5-carboxylate] | 120 |
| COC(=O)CCc1cc2nc(Nc3ccc(OC(C)C)cc3)n([C@@H]3C[C@H](C)CC[C@H]3C(C)C)c2cc1OC [Example 2-44] | 620 |
| Cc1cc2c(cc1CC(=O)O)nc(Nc1ccc(OC(F)(F)F)cc1)n2[C@@H]1C[C@H](C)CC[C@H]1C(C)C [Example 2-34] | 6.3 |
| CC(C)[C@@H]1CC[C@@H](C)C[C@H]1n1c(Nc2ccc(OC(F)(F)F)cc2)nc2cc(CCC(=O)O)ccc21 [Example 2-40] | 15 |
| COC(=O)Cc1ccc2c(c1)nc(Nc1ccc(OC(F)(F)F)cc1)n2[C@@H]1C[C@H](C)CC[C@H]1C(C)C [Example 2-10] | 120 |
| CC(C)Oc1ccc(Nc2nc3cc(CCC(=O)O)ccc3n2[C@@H]2C[C@H](C)CC[C@H]2C(C)C)cc1 [Example 2-42] | 12 |
| Cc1cc2c(cc1CC(=O)O)nc(Nc1ccc(C(C)C)cc1)n2[C@@H]1C[C@H](C)CC[C@H]1C(C)C [Example 2-35] | 8.3 |
| COC(=O)c1cc2nc(Nc3ccc(OC(F)(F)F)cc3)n([C@@H]3C[C@H](C)CC[C@H]3C(C)C)c2cc1OC [Example 2-7] | 100 |
| COC(=O)Cc1cc2nc(Nc3ccc(OC(C)C)cc3)n([C@@H]3C[C@H](C)CC[C@H]3C(C)C)c2cc1OC [Example 2-18] | 120 |
| COC(=O)c1cc2nc(Nc3ccc(OC(C)C)cc3)n([C@@H]3C[C@H](C)CC[C@H]3C(C)C)c2cc1OC [Example 2-9] | 280 |
| COc1cc2c(cc1CC(=O)O)nc(Nc1ccc(C(C)C)cc1)n2[C@@H]1C[C@H](C)CC[C@H]1C(C)C [Example 2-38] | 12 |

| SMILES | IC50 [nM] |
| --- | --- |
| COC(=O)c1cc2nc(Nc3ccc(OC(C)C)cc3)n([C@@H]3C[C@H](C)CC[C@H]3C(C)C)c2cc1C [Example 2-6] | 220 |
| COC(=O)CCc1ccc2c(c1)nc(Nc1ccc(C(C)C)cc1)n2[C@@H]1C[C@H](C)CC[C@H]1C(C)C [Example 2-20] | 130 |
| COC(=O)Cc1cc2nc(Nc3ccc(OC(F)(F)F)cc3)n([C@@H]3C[C@H](C)CC[C@H]3C(C)C)c2cc1OC [Example 2-16] | 70 |
| COC(=O)CCc1cc2nc(Nc3ccc(C(C)C)cc3)n([C@@H]3C[C@H](C)CC[C@H]3C(C)C)c2cc1OC [Example 2-45] | 180 |
| CC(C)[C@@H]1CC[C@@H](C)C[C@H]1n1c(Nc2ccc(OC(F)(F)F)cc2)nc2cc(C(=O)O)ccc21 [Example 2-22, 1-[(1R,2S,5R)-2-isopropyl-5-methylcyclohexyl]-2-{[4-(trifluoromethoxy)phenyl]-amino}-1H-benzimidazole-5-carboxylic acid] | 4 |
| CC(C)c1ccc(Nc2nc3cc(CCC(=O)O)ccc3n2[C@@H]2C[C@H](C)CC[C@H]2C(C)C)cc1 [Example 2-41] | 12 |
| COc1cc2c(cc1C(=O)O)nc(Nc1ccc(OC(F)(F)F)cc1)n2[C@@H]1C[C@H](C)CC[C@H]1C(C)C [Example 2-28] | 16 |
| Cc1cc2c(cc1C(=O)O)nc(Nc1ccc(C(C)C)cc1)n2[C@@H]1C[C@H](C)CC[C@H]1C(C)C [Example 2-26] | 7.5 |
| CC(C)c1ccc(Nc2nc3cc(C(=O)O)ccc3n2[C@@H]2C[C@H](C)CC[C@H]2C(C)C)cc1 [Example 2-23] | 6.3 |
| COc1cc2c(cc1CC(=O)O)nc(Nc1ccc(OC(F)(F)F)cc1)n2[C@@H]1C[C@H](C)CC[C@H]1C(C)C [Example 2-37] | 23 |
| CC(C)c1ccc(Nc2nc3cc(CC(=O)O)ccc3n2[C@@H]2C[C@H](C)CC[C@H]2C(C)C)cc1 [Example 2-32] | 11 |
| COc1cc2c(cc1CCC(=O)O)nc(Nc1ccc(OC(C)C)cc1)n2[C@@H]1C[C@H](C)CC[C@H]1C(C)C [Example 2-47] | 2800 |
| CC(C)Oc1ccc(Nc2nc3cc(CC(=O)O)ccc3n2[C@@H]2C[C@H](C)CC[C@H]2C(C)C)cc1 [Example 2-33] | 45 |
| COC(=O)CCc1ccc2c(c1)nc(Nc1ccc(OC(F)(F)F)cc1)n2[C@@H]1C[C@H](C)CC[C@H]1C(C)C [Example 2-19] | 95 |
| COC(=O)Cc1cc2nc(Nc3ccc(OC(C)C)cc3)n([C@@H]3C[C@H](C)CC[C@H]3C(C)C)c2cc1C [Example 2-15] | 80 |
| COC(=O)Cc1cc2nc(Nc3ccc(C(C)C)cc3)n([C@@H]3C[C@H](C)CC[C@H]3C(C)C)c2cc1C [Example 2-14] | 35 |
| Cc1cc2c(cc1C(=O)O)nc(Nc1ccc(OC(F)(F)F)cc1)n2[C@@H]1C[C@H](C)CC[C@H]1C(C)C [Example 2-25] | 8 |
| COC(=O)CCc1ccc2c(c1)nc(Nc1ccc(OC(C)C)cc1)n2[C@@H]1C[C@H](C)CC[C@H]1C(C)C [Example 2-21] | 380 |
| COC(=O)c1cc2nc(Nc3ccc(C(C)C)cc3)n([C@@H]3C[C@H](C)CC[C@H]3C(C)C)c2cc1C [Example 2-5] | 40 |
| COC(=O)Cc1cc2nc(Nc3ccc(OC(F)(F)F)cc3)n([C@@H]3C[C@H](C)CC[C@H]3C(C)C)c2cc1C [Example 2-13] | 45 |
| COc1cc2c(cc1C(=O)O)nc(Nc1ccc(C(C)C)cc1)n2[C@@H]1C[C@H](C)CC[C@H]1C(C)C [Example 2-29] | 13 |
| COC(=O)Cc1ccc2c(c1)nc(Nc1ccc(C(C)C)cc1)n2[C@@H]1C[C@H](C)CC[C@H]1C(C)C [Example 2-11] | 80 |

What follows are compounds tested against Mutant IDH1 (LN229 R132H cells) (Homo sapiens (Human), UniProt O75874, R132H) (assay: Mutant IDH1 cellular assay (2-HG levels in medium of LN229 R132H cells)). Settings: 2-HG production in LN229 R132H cells, 24 hours incubation, fluorescence readout.
Mutant IDH1 (LN229 R132H cells), sequence (O75874 whole entry R132H): as above
Assay type: cell-based
Protocol: Levels of (2R)-2-hydroxyglutarate (2HG) were measured in medium of a cell line with overexpression of mutated isocitrate dehydrogenase (mIDH) protein. mIDH catalyzes the NADPH-dependent reduction of alpha-ketoglutarate to 2-HG. Cells (LN229 R132H, Mohrenz et al., Apoptosis (2013) 18:1416-1425) were grown in DMEM containing 10% FCS. They were harvested by trypsin and seeded into 96-well plates. Cells were incubated overnight at 37° C. in 5% CO2. The next day test compounds were added to each cell well. The final concentration of DMSO was 0.1% and DMSO controls were included. The plates were then placed in an incubator for 24 hours.
2-HG was measured according to Balss et al. (Acta Neuropathol (2012) 124: 883-891). Briefly, HClO4 was added to each well and the plates were centrifuged. Aliquots are removed and incubated with hydroxyglutarate dehydrogenase (HGDH), diaphorase, NAD+, and resazurin. The conversion of resazurin to resorufin was detected by fluorescence spectroscopy at Ex 540 nm Em 600 nm. The increase in fluorescence is proportional to 2-HG production. IC50 values are determined by interpolation from plots of relative fluorescence vs inhibitor concentration.

| SMILES | IC50 [nM] |
| --- | --- |
| COc1cc2c(cc1C(=O)O)nc(Nc1ccc(OC(F)(F)F)cc1)n2[C@@H]1C[C@H](C)CC[C@H]1C(C)C [Example 2-28] | 38 |
| COc1cc2c(cc1C(=O)O)nc(Nc1ccc(OC(C)C)cc1)n2[C@@H]1C[C@H](C)CC[C@H]1C(C)C [Example 2-30] | 84 |
| COc1cc2c(cc1C(=O)O)nc(Nc1ccc(C(C)C)cc1)n2[C@@H]1C[C@H](C)CC[C@H]1C(C)C [Example 2-29] | 40 |
